Experimental data: patent US6967237B2, “Ghrelin analogs” (priority 2000, dated 2005)
Like-named read-outs stand apart in the source and are kept apart here. Where a SMILES comes first, the peptide text is derived from it. Where no end group is shown, it is not given here. [ ]: non-standard residue; d: D form. The star is where a group is joined. Octanoyl = CCCCCCCC(=O)*

Key:
[1] = tested on: somatotrops; settings: several species including man; cited from earlier work
[2] = target: human GHSR1a (Homo sapiens, UniProt Q92847); assay: Aequorin bioluminescence functional assay (intracellular calcium mobilization) in 293AEQ17/GHSR1a cells; type: cell-based; settings: for activation at 10 µM: read-out: Functional Assay % activation at 10 μM relative to ghrelin; for EC50: aequorin bioluminescence, HEK-293 cells expressing hGHSR1a, three separate assays
Method: A stable cell line expressing the human GHSR1a and the aequorin reporter protein were used for the assay.
The assay was performed using a Luminoskan RT luminometer (Labsystems Inc., Gaithersburg, Md.) controlled by custom software written for a Macintosh PowerPC 6100. […] The cells were harvested, washed once in ECB medium and resuspended to 500,000 cells/ml. 100 ml of cell suspension (corresponding to 5×10^4 cells) was then injected into the test plate containing the peptides, and the integrated light emission was recorded over 30 seconds, in 0.5 second units. 20 μL of lysis buffer (0.1% final Triton X-100 concentration) was then injected and the integrated light emission recorded over 10 seconds, in 0.5 second units. The “fractional response” values for each well were calculated by taking the ratio of the integrated response to the initial challenge to the total integrated luminescence including the Triton X-100 lysis response. The functional EC50 values were measured in three separate assays.

[3] = target: human GHS receptor 1a (Homo sapiens, UniProt Q92847); assay: Competitive binding assay with [35S]-MK-677 on membranes of HEK 293-aequorin cells transfected with human GHS receptor; settings: competition with 0.05 nM [35S]-MK-677; three separate assays in triplicate
Sequence of human GHS receptor 1a (Q92847 whole entry): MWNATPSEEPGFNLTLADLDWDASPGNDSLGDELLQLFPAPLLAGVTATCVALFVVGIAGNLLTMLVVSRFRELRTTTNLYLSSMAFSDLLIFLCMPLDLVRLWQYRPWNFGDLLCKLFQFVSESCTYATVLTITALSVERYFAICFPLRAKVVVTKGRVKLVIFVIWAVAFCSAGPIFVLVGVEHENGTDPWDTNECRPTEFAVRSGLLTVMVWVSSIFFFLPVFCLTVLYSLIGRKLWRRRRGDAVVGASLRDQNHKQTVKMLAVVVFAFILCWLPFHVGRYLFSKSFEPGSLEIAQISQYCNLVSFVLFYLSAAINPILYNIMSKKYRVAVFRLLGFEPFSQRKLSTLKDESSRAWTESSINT
Method: Prior to the binding assay, the HEK 293-AEQ17 cells (8×10^5 cells plated 18 hours before transfection in a T75 flask) were transfected with 22 μg of human GHS receptor plasmid using 264 μg lipofectamine. The open reading frame cDNA (SEQ. ID. NO. 22) encoding the human GHS receptor inserted in the mammalian expression vector pcDNA-3 (Invitrogen, Carlsbad, Calif.) was used for binding and expression studies.
For a 96-well filter binding assay, 0.05 nM [^35S]-NM-677 (specific activity ˜1200 Ci/mmol) was bound to 4 μg membrane protein per well with or without competing test ligand. The bound membranes were filtered on 0.5% polyethylenimine prewet filters (UniFilter 96 GF/C; Packard #6005174, Meriden, Conn.). Filters were washed 8 times, dried, and counted with Microscint 20 (Packard #6013621, Meriden, Conn.). IC50 values were determined from three separate assays performed in triplicate.

Sequence of human GHSR1a (Q92847 whole entry): as above

| Compound | activation at 10 µM ([2]; at 10 μM, relative to ghrelin) [%] | other results |
| --- | --- | --- |
| H[dW]AW[dF]K-NH2 [GHRP-6] | – | growth hormone release from somatotrops, result in words [1]: release growth hormone from somatotrops in a dose-dependent manner |
| CCCCCCCC(=O)OC[C@H](NC(C)=O)C(=O)N[C@@H](Cc1ccccc1)C(=O)N[C@@H](CC(C)C)C(N)=O [Compound 25, Ac-XFL-NH2] (Ac-Ser(Octanoyl)-Phe-Leu-NH2) | – | EC50 [2]: 2500 ± 1200 nM; activation at 10 µM [2]: 29 ± 7% |
| CCCCCCCC(=O)OC[C@H](NC(=O)[C@H](CO)NC(C)=O)C(=O)N[C@@H](Cc1ccccc1)C(N)=O [Compound 26, Ac-SXF-NH2] (Ac-Ser-Ser(Octanoyl)-Phe-NH2) | 28 ± 1 | – |
| CCCCCCCC(=O)OC[C@H](NC(=O)[C@H](CO)NC(=O)CN)C(N)=O [Compound 24, GSX-NH2] (H-Gly-Ser-Ser(Octanoyl)-NH2) | – | activation at 10 µM [2]: 28 ± 1% |
| CCCCCCCC(=O)OC[C@H](NC(=O)[C@H](CO)NC(C)=O)C(=O)N[C@@H](Cc1ccccc1)C(=O)N[C@@H](CC(C)C)C(N)=O [Compound 23, Ac-SXFL-NH2] (Ac-SS(Octanoyl)FL-NH2) | 30 ± 5 | EC50 [2]: 1150 ± 120 nM |

Now from value to compound, other results behind:

| activation at 10 µM ([2]; at 10 μM, relative to ghrelin) [%] | Compound | other results |
| --- | --- | --- |
| 96 ± 7 | CCCCCCCC(=O)OC[C@H](NC(=O)[C@H](CO)NC(=O)CN)C(=O)N[C@@H](Cc1ccccc1)C(=O)N[C@@H](CC(C)C)C(N)=O [Compound 21, GSXFL-NH2] (H-GSS(Octanoyl)FL-NH2) | – |
| 97 ± 9 | CCCCCCCC(=O)OC[C@H](NC(=O)[C@H](CO)NC(=O)CN)C(=O)N[C@@H](Cc1ccccc1)C(=O)N[C@@H](CC(C)C)C(=O)N[C@@H](CO)C(=O)N1CCC[C@H]1C(=O)N[C@@H](CCC(=O)O)C(=O)N[C@@H](Cc1c[nH]cn1)C(=O)N[C@@H](CCC(N)=O)C(=O)N[C@@H](CCCNC(=N)N)C(=O)N[C@H](C(=O)N[C@@H](CCC(N)=O)C(=O)N[C@@H](CCC(N)=O)C(N)=O)C(C)C [Compound 13, GSXFLSPEHQRVQQ] | – |
| 92 ± 16 | CCCCCCCC(=O)OC[C@H](NC(=O)[C@H](CO)NC(=O)CN)C(=O)N[C@@H](Cc1ccccc1)C(=O)N[C@@H](CC(C)C)C(=O)N[C@@H](CO)C(=O)N1CCC[C@H]1C(=O)N[C@@H](CCC(=O)O)C(=O)N[C@@H](Cc1c[nH]cn1)C(=O)N[C@@H](CCC(N)=O)C(=O)N[C@@H](CCCNC(=N)N)C(=O)N[C@H](C(=O)N[C@@H](CCC(N)=O)C(=O)N[C@@H](CCC(N)=O)C(=O)N[C@@H](CCCNC(=N)N)C(=O)N[C@@H](CCCCN)C(=O)N[C@@H](CCC(=O)O)C(=O)N[C@@H](CO)C(N)=O)C(C)C [Compound 19, GSXFLSPEHQRVQQRKES-NH2] (H-GSS(Octanoyl)FLSPEHQRVQQRKES-NH2; N-terminus assumed) | – |
| 91 ± 4 | CCCCCCCC(=O)OC[C@H](NC(=O)[C@H](CO)NC(=O)CN)C(=O)N[C@@H](Cc1ccccc1)C(N)=O [Compound 22, GSXF-NH2] (H-GSS(Octanoyl)F-NH2) | IC50 [3]: 889 ± 72 nM; EC50 [2]: 72 ± 29 nM |
| 100 ± 4 | CCCCCCCC(=O)OC[C@H](NC(=O)[C@H](CO)NC(=O)CN)C(=O)N[C@@H](Cc1ccccc1)C(=O)N[C@@H](CC(C)C)C(=O)N[C@@H](CO)C(=O)N1CCC[C@H]1C(=O)N[C@@H](CCC(=O)O)C(=O)N[C@@H](Cc1c[nH]cn1)C(=O)N[C@@H](CCC(N)=O)C(=O)N[C@@H](CCCNC(=N)N)C(=O)N[C@H](C(=O)N[C@@H](CCC(N)=O)C(=O)N[C@@H](CCC(N)=O)C(=O)N[C@@H](CCCNC(=N)N)C(=O)N[C@@H](CCCCN)C(=O)N[C@@H](CCC(=O)O)C(=O)N[C@@H](CO)C(=O)N[C@@H](CCCCN)C(=O)N[C@@H](CCCCN)C(=O)N1CCC[C@H]1C(=O)N1CCC[C@H]1C(=O)N[C@@H](C)C(N)=O)C(C)C [Compound 18, GSXFLSPEHQRVQQRKESKKPPA-NH2] (H-GSS(Octanoyl)FLSPEHQRVQQRKESKKPPA-NH2) | – |
| 105 ± 5 | CCCCCCCC(=O)NC[C@H](NC(=O)[C@H](CO)NC(=O)CN)C(=O)N[C@@H](Cc1ccccc1)C(=O)N[C@@H](CC(C)C)C(=O)N[C@@H](CO)C(=O)N1CCC[C@H]1C(=O)N[C@@H](CCC(=O)O)C(=O)N[C@@H](Cc1c[nH]cn1)C(=O)N[C@@H](CCC(N)=O)C(=O)N[C@@H](CCCNC(=N)N)C(=O)N[C@H](C(=O)N[C@@H](CCC(N)=O)C(=O)N[C@@H](CCC(N)=O)C(=O)N[C@@H](CCCNC(=N)N)C(=O)N[C@@H](CCCCN)C(=O)N[C@@H](CCC(=O)O)C(=O)N[C@@H](CO)C(=O)N[C@@H](CCCCN)C(=O)N[C@@H](CCCCN)C(=O)N1CCC[C@H]1C(=O)N1CCC[C@H]1C(=O)N[C@@H](C)C(=O)N[C@@H](CCCCN)C(=O)N[C@@H](CC(C)C)C(=O)N[C@@H](CCC(N)=O)C(=O)N1CCC[C@H]1C(=O)N[C@@H](CCCNC(=N)N)C(=O)O)C(C)C [Compound 12] | – |
| 102 ± 3 | CCCCCCCC(=O)NC[C@H](NC(=O)[C@H](CO)NC(=O)CN)C(=O)N[C@@H](Cc1ccccc1)C(=O)N[C@@H](CC(C)C)C(=O)N[C@@H](CO)C(=O)N1CCC[C@H]1C(=O)N[C@@H](CCC(=O)O)C(=O)N[C@@H](Cc1c[nH]cn1)C(=O)N[C@@H](CCC(N)=O)C(=O)N[C@@H](CCCNC(=N)N)C(=O)N[C@H](C(=O)N[C@@H](CCC(N)=O)C(=O)N[C@@H](CCC(N)=O)C(=O)O)C(C)C [Compound 14] | – |
